# Patent US8628771B2, “CA IX-specific inhibitors” (Institute of Virology Slovak Academy of Sciences, priority 2002, dated 2014)
# “And” between values parts separate entries of the source, which are not always exact repeats. Equal entries are not always repeated. Where two headings read alike, the source gives them in different places.
# Assays:
# bCA IV = biological target: T1, bCA IV (Bos taurus, UniProt Q95323); assay: CA esterase activity assay, isozyme bCA IV; assay type: biochemical, bovine
# T1 construct: CA IV was isolated from bovine lung microsomes as described by Maren et al; from tissue; host or cells: bovine lung microsomes
# T1 sequence (Q95323 19-284): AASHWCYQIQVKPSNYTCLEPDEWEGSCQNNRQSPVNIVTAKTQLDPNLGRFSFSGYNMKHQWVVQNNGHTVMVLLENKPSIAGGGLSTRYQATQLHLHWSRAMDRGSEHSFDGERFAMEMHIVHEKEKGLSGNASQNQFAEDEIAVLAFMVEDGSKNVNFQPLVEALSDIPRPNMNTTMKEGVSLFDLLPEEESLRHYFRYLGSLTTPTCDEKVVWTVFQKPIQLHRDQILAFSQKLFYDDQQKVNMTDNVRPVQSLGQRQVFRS
# hCA IX = hCA IX (Homo sapiens, UniProt Q16790); assay: CA CO2 hydrase activity assay, tumor-associated isozyme hCA IX
# Experimental: An SX.18MV-R Applied Photophysics stopped-flow instrument has been used for assaying the CA CO2 hydration activity assays [44]. […] Inhibitor and enzyme solutions were preincubated together for 10 min at room temperature prior to assay, in order to allow for the formation of the E-I complex.
# human red cells [1] = conditions: pH 7.4
# [2] = from reference [58]; cited from earlier work
# MDCK-CA IX cells [3] = assay: Extracellular pH (pHe) of sulfonamide-treated MDCK-CA IX cells; assay type: cell-based, canine; conditions: 48 hours; for effect on extracellular acidification: hypoxia (2% O2); for effect on the normoxic pHe: normoxia
# Experimental: (§1) To maintain the standard conditions, the cells were always plated in 3 ml of culture medium at a density of 0.8-1×10^6 per 6 cm dish 24 hours before the transfer to hypoxia (2% O2 and 5% CO2 balanced with N2) generated in a Napco 7000 incubator. Parallel normoxic dishes were incubated in air with 5% CO2.
# (§2) Compound 6 sulfonamide [4-(2-aminoethyl)-benzenesulfonamide] was from Sigma-Aldrich. […] The sulfonamides were dissolved in PBS with 20% DMSO at 100 mM concentration and diluted in a culture medium to a required final concentration just before their addition to cells. The cells were incubated for 48 hours in hypoxia and normoxia, respectively, the pH of the culture medium was measured and the binding of the FITC-labeled Compound 92 to living cells, washed three times with PBS, was viewed by a Nikon E400 epifluorescence microscope.
# hCA II = biological target: T2, hCA II (Homo sapiens, UniProt P00918); assay: CA esterase activity assay, isozyme hCA II; assay type: biochemical; conditions: Table 2; human (cloned) isozymes; read-out: KI hCA II
# T2 construct: made in house; host or cells: Escherichia coli BL21 (DE3)
# Experimental: (§3) Human CA I and CA II cDNAs were expressed in Escherichia coli strain BL21 (DE3) from the plasmids pACA/hCA I and pACA/hCA II described by Lindskog's group [54].
# (§4) Non-enzymatic hydrolysis rates were always subtracted from the observed rates. […] Inhibitor and enzyme solutions were preincubated together for 10 min at room temperature prior to assay, in order to allow for the formation of the E-I complex. The inhibition constant KI was determined as described in references [44, 76].
# hCA I = biological target: T3, hCA I (Homo sapiens, UniProt P00915); assay: CA esterase activity assay, isozyme hCA I; assay type: biochemical; conditions: Table 2; human (cloned) isozymes; read-out: KI hCA I
# T3 construct: made in house; host or cells: Escherichia coli BL21 (DE3)
# T3 sequence (P00915 whole entry): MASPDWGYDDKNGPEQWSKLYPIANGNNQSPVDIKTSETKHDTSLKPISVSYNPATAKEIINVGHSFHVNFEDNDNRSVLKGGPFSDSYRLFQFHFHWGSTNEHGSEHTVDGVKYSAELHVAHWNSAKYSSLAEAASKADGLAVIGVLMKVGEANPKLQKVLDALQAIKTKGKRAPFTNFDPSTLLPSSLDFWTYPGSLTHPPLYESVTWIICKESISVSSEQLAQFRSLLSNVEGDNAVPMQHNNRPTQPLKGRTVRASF
# Experimental: as §3, §4
# HeLa cells [4] = assay: Binding of FITC-labeled sulfonamide to HeLa cells (fluorescence microscopy); assay type: cell-based, human; conditions: hypoxia versus normoxia, 48 hour incubation
# HeLa cells [5] = assay: Extracellular pH (pHe) of sulfonamide-treated HeLa cells; assay type: cell-based, human; conditions: hypoxic HeLa cells, 1 mM, 48 hours
# Experimental: as §1, §2
# MDCK-CA IX cells [6] = assay: Binding of FITC-labeled sulfonamide to MDCK-CA IX cells (fluorescence microscopy); assay type: cell-based, canine; conditions: 48 hours
# Experimental: as §1, §2
# SiHa cells [7] = assay: Binding of FITC-labeled sulfonamide to SiHa cells (fluorescence microscopy); assay type: cell-based, human; conditions: hypoxia versus normoxia, 48 hour incubation
# SiHa cells [8] = assay: Extracellular pH (pHe) of sulfonamide-treated SiHa cells; assay type: cell-based, human; conditions: hypoxic SiHa cells, 1 mM, 48 hours
# Experimental: as §1, §2
# human red cells [9] = assay: Membrane permeance assay: ex vivo penetration through red blood cells; conditions: pH 7.4; for [sulfonamide] in red blood cells, HPLC: HPLC method; for [sulfonamide] in red blood cells, ES: electronic spectroscopic method; for [sulfonamide] in red blood cells, EI: enzymatic method
compound,measurement,setting,value
"Nc1ccc(S(=O)(=O)Nc2nnc(S(N)(=O)=O)s2)cc1 [Compound 15, 5-(4-aminobenzenesulfonylamino)-1,3,4-thiadiazole-2-sulfonamide]",Ki,bCA IV,~5 nM
same,Ki,bCA IV; read-out: KI bCA IV,5 nM and 5.1 nM
same,Ki,hCA IX; KI against CA IX,14 to 50 nM
same,Ki,hCA IX; read-out: KI against CA IX,38 nM
same,Ki,hCA IX; read-out: KI hCA IX,38 nM
same,incubation period to saturation of hCA I and hCA II in erythrocytes with inhibitor,"human red cells [1]; human, 2 mM",60 min
same,"[sulfonamide] in red blood cells, EI","human red cells [1]; human, 30 min, 2 mM",122 µM
same,"[sulfonamide] in red blood cells, ES","human red cells [1]; human, 30 min, 2 mM",127 µM
same,"[sulfonamide] in red blood cells, HPLC","human red cells [1]; human, 30 min, 2 mM",125 µM
same,"[sulfonamide] in red blood cells, EI","human red cells [1]; human, 60 min, 2 mM",158 µM
same,"[sulfonamide] in red blood cells, ES","human red cells [1]; human, 60 min, 2 mM",156 µM
same,"[sulfonamide] in red blood cells, HPLC","human red cells [1]; human, 60 min, 2 mM",154 µM
same,pKa for the second sulfonamido group,[2],3.2
Cc1cc(C)[n+](Cc2ccc(S(N)(=O)=O)cc2)c(C)c1 [Compound 39],Ki,"bCA IV; Table 2, from bovine lung microsomes, read-out: KI bCA IV",92 nM
same,effect on extracellular acidification,MDCK-CA IX cells [3],able to reduce the extracellular acidification
same,effect on the normoxic pHe,MDCK-CA IX cells [3],negligible
same,Ki,hCA II,50 nM
same,Ki,"hCA IX; read-out: KI hCA IX, Table 2, catalytic domain of the human, cloned isozyme",38 nM
same,Ki,hCA I,7000 nM
NS(=O)(=O)c1ccc(CNC(=S)Nc2ccc3c(c2)C(=O)OC32c3ccc(O)cc3Oc3cc(O)ccc32)cc1 [Compound 92],accumulation of FITC-labeled compound in cells,HeLa cells [4],accumulated in the hypoxic HeLa and SiHa cells
same,effect on acidosis (pHe),HeLa cells [5],partially reduced
same,detection of FITC-labeled compound in cells,MDCK-CA IX cells [6]; hypoxic MDCK-CA IX cells,detected only in hypoxic MDCK-CA IX cells
same,detection of FITC-labeled compound in cells,MDCK-CA IX cells [6]; normoxic MDCK-CA IX cells and mock-transfected controls,absent
same,accumulation of FITC-labeled compound in cells,SiHa cells [7],accumulated in the hypoxic HeLa and SiHa cells
same,effect on extracellular acidification,MDCK-CA IX cells [3],able to reduce the extracellular acidification
same,effect on the normoxic pHe,MDCK-CA IX cells [3],negligible
same,effect on acidosis (pHe),SiHa cells [8],partially reduced
"CC(=O)/N=c1/sc(S(N)(=O)=O)nn1C [MZA, methazolamide]","[sulfonamide] in red blood cells, HPLC","human red cells [9]; t = 30 min, 2 mM sulfonamide in 5 mM Tris buffer",170 µM
same,"[sulfonamide] in red blood cells, ES","human red cells [9]; t = 30 min, 2 mM sulfonamide",169 µM
same,"[sulfonamide] in red blood cells, EI","human red cells [9]; t = 30 min, 2 mM sulfonamide",165 µM
same,"[sulfonamide] in red blood cells, HPLC","human red cells [9]; t = 60 min, 2 mM sulfonamide",168 µM
same,"[sulfonamide] in red blood cells, ES","human red cells [9]; t = 60 min, 2 mM sulfonamide",168 µM
same,"[sulfonamide] in red blood cells, EI","human red cells [9]; t = 60 min, 2 mM sulfonamide",167 µM
Benzolamide [reference compound],incubation period to saturation of hCA I and hCA II in erythrocytes with inhibitor,human red cells [1],60 min
same,pKa for the second sulfonamido group,[2],3.2
